We go through 18 compounds from US7563791B2, “Pyrrolotriazine derivatives useful for treating hyper-proliferative disorders and diseases associated with angiogenesis” (Bayer Pharmaceuticals Corporation, priority 2004, dated 2009).

Each structure is given as a SMILES string.

Holding throughout (format): cell-based
One experiment has as its system HCT116 cells. In words: Tumor cell proliferation (Alamar Blue), HCT116. To be noted: Homo sapiens, HCT-116, 72 h. The method, then: (§1) Human tumor cells (e.g., HCT116 or MDA-MB-231 cells), are seeded in a Costar 96-well plate at 3.0×10^3 cells/well and grown in 150 μl of RPMI complete media (Invitrogen Corporation, Grand Island, N.Y.) containing 10% fetal bovine serum (Hyclone, Logan, Utah) at 37° C. for 16 h in an incubator with 5% CO2. To each well, 50 μl of additional growth media containing 40 μM to 18 nM concentrations of compound with 0.4% DMSO is added. Cells are grown for another 72 h at 37° C. with 5% CO2. 20 μl of Alamar Blue (Trek Diagnostic Systems, Inc., Cleveland, Ohio) reagent is added to each well and incubated for 3 h at 37° C. Plates are read in a SpectraMax Gemini (Molecular Devices, Calif.) with 544 nm excitation and 590 nm emission wavelength. IC50 values are determined by linear regression analysis of log drug concentration versus percent inhibition.
In general terms: The colour change of resazurin is a common sign of viable cells or microbes.

A further experiment has as its system MDA-MB-231 cells. In words: Tumor cell proliferation (Alamar Blue), MDA-MB-231. To be noted: Homo sapiens, MDA-MB-231, 72 h. On the procedure: as §1
The test system of experiment [1] is VEGF stimulated Phospho-ERK in HUVEC. In words: Growth factor stimulated p-ERK assay in HUVECs (VEGF stimulation, ERK1/2 Bioplex). To be noted: Homo sapiens, compound 2 hrs, then 50 ng/ml VEGF 10 min; for inhibition at 0.1 µM: @ 100 nM. On the procedure: Growth Factor Stimulated p-ERK assay in HUVECs
Exponentially growing human endothelial HUVECs cells (human umbilical vein endothelial cells, cat# CC-2517, Cambrex, Walkersville, Md.) were seeded at twenty five thousand cells/well in 96 well plates in EBM-2 MV medium with growth factors (cat# CC-3202, Cambrex) and grown at 37° C. in 5% CO2. Sixteen hours post-plating, the cells were changed to serum-free medium (RPMI 1640 containing 0.1% BSA (bovine serum albumin) and compounds were added at different concentrations for 2 hrs, after which the cells were stimulated for 10 min with 50 ng/ml of either VEGF (vascular endothelial growth factor, Protein Sciences, Meriden, Conn.) or bFGF (basic fibroblast growth factor cat# PHG0026, Biosource International, Camarillo, Calif.). The rest of the assay was performed per manufacturer indications for the ERK½ Bioplex assay (cat#171-304004, Bio-Rad, Hercules, Calif.). After removing culture medium by aspiration, the cells were quickly rinsed with 100 μl of cell wash buffer A to stop treatment reaction. Eighty microliters of cell lysis buffer were then immediately added to each well of the 96 well plate which was put on ice. Cells in each well were lysed by pipetting up and down 5 times with a multi-channel pipet. The plate was then agitated on a microtiter plate shaker at 300 rpm for 20 min at 4° C. Cellular debris were pelleted by centrifugation at 4500 g for 15 min at 4° C. and the supernatant was collected. Forty five microliters of supernatant was diluted with an equal volume of Bio-Plex phosphoprotein assay Buffer B, The coupled and color coated beads were added into a 96 well filter plate, and the prepared lysates were added. The beads and lysate mixture was incubated at room temperature for 15-18 hrs. The following day, the plate was vacuum-filtered and then washed 3×. Twenty-five microliters of detection antibody solution were added to each well and the plate was then incubated for 30 min at room temperature. The plate was then vaccum-filtered and washed as described previously. Fifty microliters of streptavidin-PE solution was added to each well, the plate was incubated for 10 min at room temperature and then was then vaccum-filtered and washed as described above. One hundred twenty-five microliters of resuspension buffer was added to each well and data were acquired on the Luminex 100 instrument (Bio-Rad).

`CCOC(=O)c1cn2ncnc(N)c2c1-c1ccc(NC(=O)Nc2cc(C(C)(C)C)nn2-c2ccc(F)cc2)cc1` [Example 25, ethyl 4-amino-5-{4-[({[3-tert-butyl-1-(4-fluorophenyl)-1H-pyrazol-5-yl]amino}carbonyl)amino]phenyl}pyrrolo[2,1-f][1,2,4]triazine-6-carboxylate]: the IC50 in the experiment on HCT116 cells and in the experiment with MDA-MB-231 cells was under 0.5 µM in each case.
Consider `Nc1ncnn2cc(C(=O)NC3CC3)c(-c3ccc(NC(=O)Nc4cc(C(F)(F)F)ccc4F)cc3)c12` [Example 69, 4-amino-N-cyclopropyl-5-{4-[({[2-fluoro-5-(trifluoromethyl)phenyl]amino}carbonyl)amino]phenyl}pyrrolo[2,1-f][1,2,4]triazine-6-carboxamide], for which the half-maximal inhibitory concentration (IC50) (commonly the concentration at which inhibition is half-maximal) was over 0.5 µM with HCT116 cells, under 1.5 µM in the experiment on HCT116 cells (bounds given in μM) and 1.5 to 5 µM with MDA-MB-231 cells (bounds given in μM).
With `CCNC(=O)c1cn2ncnc(N)c2c1-c1ccc(NC(=O)Nc2cc(C(F)(F)F)ccc2F)cc1` [Example 71, 4-amino-N-ethyl-5-{4-[({[2-fluoro-5-(trifluoromethyl)phenyl]amino}carbonyl)amino]phenyl}pyrrolo[2,1-f][1,2,4]triazine-6-carboxamide], the values for the concentration for half-maximal inhibition (IC50) in the experiment with HCT116 cells, with HCT116 cells (bounds given in μM) and in the experiment with MDA-MB-231 cells were over 0.5 µM, under 1.5 µM and under 0.5 µM, respectively.
Turning to `CNC(=O)c1cn2ncnc(N)c2c1-c1ccc(NC(=O)Nc2cc(C(C)(C)C)ccn2)cc1` [Example 73, 4-amino-5-[4-({[(4-tert-butylpyridin-2-yl)amino]carbonyl}amino)phenyl]-N-methylpyrrolo[2,1-f][1,2,4]triazine-6-carboxamide], the concentration for half-maximal inhibition (IC50) with HCT116 cells (bounds given in μM) and in the experiment with MDA-MB-231 cells (bounds given in μM) was 1.5 to 5 µM throughout.
For the compound `CNC(=O)c1cn2ncnc(N)c2c1-c1ccc(NC(=O)Nc2ccc(F)c(C(F)(F)F)c2)cc1` [Example 74, 4-amino-5-{4-[({[4-fluoro-3-(trifluoromethyl)phenyl]amino}carbonyl)amino]phenyl}-N-methylpyrrolo[2,1-f][1,2,4]triazine-6-carboxamide], the IC50 in the experiment on HCT116 cells (bounds given in μM) and in the experiment on MDA-MB-231 cells (bounds given in μM) was 1.5 to 5 µM in each case.
As for `CC(C)(C)c1ccnc(NC(=O)Nc2ccc(-c3c(C(=O)NC4CC4)cn4ncnc(N)c34)cc2)c1` [Example 76, 4-amino-5-[4-({[(4-tert-butylpyridin-2-yl)amino]carbonyl}amino)phenyl]-N-cyclopropylpyrrolo[2,1-f][1,2,4]triazine-6-carboxamide], the IC50 in the experiment with HCT116 cells was over 0.5 µM; in the experiment on HCT116 cells (bounds given in μM), under 1.5 µM; with MDA-MB-231 cells (bounds given in μM), 1.5 to 5 µM.
Regarding `Nc1ncnn2cc(C(=O)NC3CC3)c(-c3ccc(NC(=O)Nc4cc(C(F)(F)F)ccn4)cc3)c12` [Example 82, 4-amino-N-cyclopropyl-5-{4-[({[4-(trifluoromethyl)pyridin-2-yl]amino}carbonyl)amino]phenyl}pyrrolo[2,1-f][1,2,4]triazine-6-carboxamide], the IC50 is 1.5 to 5 µM in the experiment with HCT116 cells (bounds given in μM), over 0.5 µM with MDA-MB-231 cells and under 1.5 µM with MDA-MB-231 cells (bounds given in μM).
With `COCCN(C)C(=O)c1cn2ncnc(N)c2c1-c1ccc(NC(=O)Nc2ccc(F)c(C(F)(F)F)c2)cc1` [Example 84, 4-amino-5-{4-[({[4-fluoro-3-(trifluoromethyl)phenyl]amino}carbonyl)amino]phenyl}-N-(2-methoxyethyl)-N-methylpyrrolo[2,1-f][1,2,4]triazine-6-carboxamide], in the experiment on HCT116 cells (bounds given in μM), the IC50 was in the range of 5 to 10 µM.
On to `Cn1nc(C(C)(C)C)cc1NC(=O)Nc1ccc(-c2c(C(=O)NCC(F)(F)F)cn3ncnc(N)c23)cc1` [Example 94, 4-amino-5-[4-({[(3-tert-butyl-1-methyl-1H-pyrazol-5-yl)amino]carbonyl}amino)phenyl]-N-(2,2,2-trifluoroethyl)pyrrolo[2,1-f][1,2,4]triazine-6-carboxamide], for which the IC50 with HCT116 cells (bounds given in μM) was in the range of 5 to 10 µM; in the experiment with MDA-MB-231 cells (bounds given in μM), 1.5 to 5 µM.
Consider `CCOC(=O)c1cn2ncnc(N)c2c1-c1ccc(NC(=O)Nc2ccc(OC)c(CN3CCOCC3)c2)cc1` [Example 96, ethyl 4-amino-5-{4-[({[4-methoxy-3-(morpholin-4-ylmethyl)phenyl]amino}carbonyl)amino]phenyl}pyrrolo[2,1-f][1,2,4]triazine-6-carboxylate], for which, in experiment [1], the inhibition (commonly the relative decrease from the control value, in per cent) at 0.1 µM was under 50%; the inhibition at 1 µM is under 50%; the inhibition at 10 µM was over 50%.
Take `CCOC(=O)c1cn2ncnc(N)c2c1-c1ccc(NC(=O)Nc2cccc(OCCN(CC)CC)c2)cc1` [Example 98, ethyl 4-amino-5-(4-{[({3-[2-(diethylamino)ethoxy]phenyl}amino)carbonyl]amino}phenyl)pyrrolo[2,1-f][1,2,4]triazine-6-carboxylate]: in experiment [1], the inhibition at 0.1 µM is under 50%, the inhibition at 1 µM is under 50% and the inhibition at 10 µM is over 50%.
In experiment [1], `NC(=O)c1cn2ncnc(N)c2c1-c1ccc(NC(=O)Nc2cc(C(F)(F)F)ccc2F)cc1` [Example 104, 4-amino-5-{4-[({[2-fluoro-5-(trifluoromethyl)phenyl]amino}carbonyl)amino]phenyl}pyrrolo[2,1-f][1,2,4]triazine-6-carboxamide] yielded an inhibition at 0.1 µM of under 50%, an inhibition at 1 µM of under 50% and an inhibition at 10 µM of over 50%.
With `COCCNC(=O)c1cn2ncnc(N)c2c1-c1ccc(NC(=O)Nc2cccc(SC(F)(F)F)c2)cc1` [Example 131, 4-amino-N-(2-methoxyethyl)-5-(4-{[({3-[(trifluoromethyl)thio]phenyl}amino)carbonyl]amino}phenyl)pyrrolo[2,1-f][1,2,4]triazine-6-carboxamide], in experiment [1], the inhibition at 0.1 µM was under 50% and the inhibition at 1 µM was over 50%.
In experiment [1], `Nc1ncnn2cc(C(=O)NCC(F)(F)F)c(-c3ccc(NC(=O)Nc4ccnc(C(F)(F)F)c4)cc3)c12` [Example 140, 4-amino-N-(2,2,2-trifluoroethyl)-5-{4-[({[2-(trifluoromethyl)pyridin-4-yl]amino}carbonyl)amino]phenyl}pyrrolo[2,1-f][1,2,4]triazine-6-carboxamide] gave an inhibition at 0.1 µM of under 50%, an inhibition at 1 µM of under 50% and an inhibition at 10 µM of over 50%.
In experiment [1], `CC(C)(CO)NC(=O)c1cn2ncnc(N)c2c1-c1ccc(NC(=O)Nc2cc(C(F)(F)F)ccc2Cl)cc1` [Example 143, 4-amino-5-{4-[({[2-chloro-5-(trifluoromethyl)phenyl]amino}carbonyl)amino]phenyl}-N-(2-hydroxy-1,1-dimethylethyl)pyrrolo[2,1-f][1,2,4]triazine-6-carboxamide] displayed an inhibition at 0.1 µM of under 50% and an inhibition at 1 µM of over 50%.
`Nc1ncnn2cc(C(=O)NCC3CCCO3)c(-c3ccc(NC(=O)Nc4cc(C(F)(F)F)ccc4F)cc3)c12` (stereo not shown) [Example 146, 4-amino-5-{4-[({[2-fluoro-5-(trifluoromethyl)phenyl]amino}carbonyl)amino]phenyl}-N-(tetrahydrofuran-2-ylmethyl)pyrrolo[2,1-f][1,2,4]triazine-6-carboxamide]: in experiment [1], the inhibition at 0.1 µM was under 50% and the inhibition at 1 µM is over 50%.
For the compound `N#Cc1cn2ncnc(N)c2c1-c1ccc(NC(=O)Nc2cccc(C(F)(F)F)n2)cc1` [Example 168, N-[4-(4-amino-6-cyanopyrrolo[2,1-f][1,2,4]triazin-5-yl)phenyl]-N′-[6-(trifluoromethyl)pyridin-2-yl]urea], in experiment [1], the inhibition at 0.1 µM was under 50% and the inhibition at 1 µM is over 50%.
With `Nc1ncnn2cc(CO)c(-c3ccc(NC(=O)Nc4cc(C(F)(F)F)ccc4F)c(F)c3)c12` [Example 251, N-{4-[4-amino-6-(hydroxymethyl)pyrrolo[2,1-f][1,2,4]triazin-5-yl]-2-fluorophenyl}-N′-[2-fluoro-5-(trifluoromethyl)phenyl]urea], the 50% inhibitory concentration (IC50) is over 0.5 µM with MDA-MB-231 cells and under 1.5 µM in the experiment with MDA-MB-231 cells (bounds given in μM).
